Measured values as given in ChEMBL document CHEMBL1201862, “PubChem BioAssay data set” (2004).
Calls of active or inactive are those of the source.

Tests used:
Jurkat [1] = assay: SAR Analysis of small molecule inhibitors of T-cell specific antigen receptor-induced NF-kB activation in a Jurkat cell line using a luminescence assay - Set 2. [Related pubchem assays (depositor defined):AID435003, AID435012, AID465]; format: functional, cell-based; details: Homo sapiens
Jurkat [2] = assay: SAR Analysis of small molecule inhibitors of T-cell specific antigen receptor-induced NF-kB activation in a Jurkat cell line using a luminescence assay. [Related pubchem assays (depositor defined):AID435003, AID435012, AID465]; format: functional, cell-based; details: Homo sapiens
HEK293 [3] = assay: SAR Analysis of small molecule inhibitors of T-cell specific antigen receptor-induced NF-kB activation in a HEK-293T cell line using a luminescence assay - Set 2. [Related pubchem assays (depositor defined):AID435003, AID435012, AID489026]; format: functional, cell-based; details: Homo sapiens
HEK293 [4] = assay: cytotoxicity in HEK293T NF-kB-Luc cells, SAR follow-up, cytotoxicity control for NF-kB activator project, cell-based, resazurin fluorescence (AID 493251); format: functional
Beta-galactosidase = Beta-galactosidase (Escherichia coli, UniProt Q8VNN2); assay: beta-galactosidase enzyme inhibitors and activators, dose response, artefact control for CCR6 antagonist project, biochemical, E. coli enzyme, set 3 (AID 504712); format: functional
[5] = target: UDP-galactopyranose mutase (Mycobacterium tuberculosis, UniProt P9WIQ1); assay: Inhibitors of Mycobacterium tuberculosis UDP-galactopyranose mutase (UGM) enzyme Measured in Biochemical System Using Plate Reader - 2105-02_Inhibitor_Dose_CherryPick_Activity. [Related pubchem assays (depositor defined):AID504439]
Chain of UDP-galactopyranose mutase (P9WIQ1 whole entry): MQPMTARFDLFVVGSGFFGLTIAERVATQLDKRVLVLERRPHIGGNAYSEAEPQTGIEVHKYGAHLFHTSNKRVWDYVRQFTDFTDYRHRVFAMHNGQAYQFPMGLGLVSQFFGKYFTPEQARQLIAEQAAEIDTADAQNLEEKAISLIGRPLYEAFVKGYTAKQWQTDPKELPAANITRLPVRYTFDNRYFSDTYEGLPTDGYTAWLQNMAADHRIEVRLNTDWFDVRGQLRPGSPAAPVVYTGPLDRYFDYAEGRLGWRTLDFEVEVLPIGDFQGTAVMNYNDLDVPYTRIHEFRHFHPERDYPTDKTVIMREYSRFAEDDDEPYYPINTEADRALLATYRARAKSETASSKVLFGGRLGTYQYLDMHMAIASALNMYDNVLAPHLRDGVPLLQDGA

[6] = target: Small ubiquitin-related modifier 2 (Homo sapiens, UniProt P61956); assay: inhibitors of SUMO2 protein-protein interaction, dose response, selectivity assay for SUMO1 interaction inhibitor project, biochemical, FRET, human SUMO2, uHTS hits (AID 624384); format: functional; details: read-out: IC50_Mean
Chain of Small ubiquitin-related modifier 2 (P61956 whole entry): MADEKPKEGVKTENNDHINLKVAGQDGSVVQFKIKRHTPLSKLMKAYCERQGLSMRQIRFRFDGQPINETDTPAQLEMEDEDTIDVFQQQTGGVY

ORF 73 = ORF 73 (Human herpesvirus 8, UniProt O40947); assay: inhibitors of C-LANA binding to LBS DNA, dose response, biochemical, fluorescence polarization, cherry-picked samples (AID 504725); parameters: species or system Human gammaherpesvirus 8;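 further: fluorescence polarization of a labeled DNA duplex reporting LANA DNA binding; potency is for inhibitors that block LANA binding to the DNA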
Chain of ORF 73 (O40947 whole entry, the tested form may be a part): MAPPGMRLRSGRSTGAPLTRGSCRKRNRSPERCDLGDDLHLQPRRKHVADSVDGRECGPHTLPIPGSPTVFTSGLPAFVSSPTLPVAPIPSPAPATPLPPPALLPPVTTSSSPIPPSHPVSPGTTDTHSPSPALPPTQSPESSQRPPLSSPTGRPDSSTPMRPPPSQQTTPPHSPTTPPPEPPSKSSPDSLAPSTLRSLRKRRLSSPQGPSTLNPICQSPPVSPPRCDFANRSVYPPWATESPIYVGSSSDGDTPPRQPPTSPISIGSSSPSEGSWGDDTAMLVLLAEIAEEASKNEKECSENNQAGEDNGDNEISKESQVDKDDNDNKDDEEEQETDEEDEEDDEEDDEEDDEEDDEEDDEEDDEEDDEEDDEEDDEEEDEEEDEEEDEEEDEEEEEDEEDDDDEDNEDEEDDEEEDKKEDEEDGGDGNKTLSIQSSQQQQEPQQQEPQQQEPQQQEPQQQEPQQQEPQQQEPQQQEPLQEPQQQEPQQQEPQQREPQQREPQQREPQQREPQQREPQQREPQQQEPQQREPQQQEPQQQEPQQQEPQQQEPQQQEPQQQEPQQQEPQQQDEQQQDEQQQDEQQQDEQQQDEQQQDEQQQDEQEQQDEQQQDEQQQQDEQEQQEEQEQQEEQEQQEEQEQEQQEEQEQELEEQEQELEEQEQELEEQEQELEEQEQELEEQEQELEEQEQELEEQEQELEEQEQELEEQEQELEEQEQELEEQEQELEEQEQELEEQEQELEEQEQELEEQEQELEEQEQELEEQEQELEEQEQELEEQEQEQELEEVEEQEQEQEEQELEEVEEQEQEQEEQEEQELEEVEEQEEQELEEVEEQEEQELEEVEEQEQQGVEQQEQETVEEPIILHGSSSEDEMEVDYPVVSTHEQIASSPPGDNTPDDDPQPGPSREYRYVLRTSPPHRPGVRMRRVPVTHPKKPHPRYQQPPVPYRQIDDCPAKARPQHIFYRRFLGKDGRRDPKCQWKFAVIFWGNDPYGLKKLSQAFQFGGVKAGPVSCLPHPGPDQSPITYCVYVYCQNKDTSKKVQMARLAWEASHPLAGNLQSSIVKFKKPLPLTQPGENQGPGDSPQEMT

Fatty acid synthase = Fatty acid synthase (Homo sapiens, UniProt P49327); assay: FAS thioesterase domain inhibitors, dose response, biochemical, kinetic fluorescence intensity (AID 624326); format: functional;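 further: rate of fluorescence rise from hydrolysis of a fluorogenic O-methyl fluorescein ester substrate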
Chain of Fatty acid synthase (P49327 whole entry, the tested form may be a part): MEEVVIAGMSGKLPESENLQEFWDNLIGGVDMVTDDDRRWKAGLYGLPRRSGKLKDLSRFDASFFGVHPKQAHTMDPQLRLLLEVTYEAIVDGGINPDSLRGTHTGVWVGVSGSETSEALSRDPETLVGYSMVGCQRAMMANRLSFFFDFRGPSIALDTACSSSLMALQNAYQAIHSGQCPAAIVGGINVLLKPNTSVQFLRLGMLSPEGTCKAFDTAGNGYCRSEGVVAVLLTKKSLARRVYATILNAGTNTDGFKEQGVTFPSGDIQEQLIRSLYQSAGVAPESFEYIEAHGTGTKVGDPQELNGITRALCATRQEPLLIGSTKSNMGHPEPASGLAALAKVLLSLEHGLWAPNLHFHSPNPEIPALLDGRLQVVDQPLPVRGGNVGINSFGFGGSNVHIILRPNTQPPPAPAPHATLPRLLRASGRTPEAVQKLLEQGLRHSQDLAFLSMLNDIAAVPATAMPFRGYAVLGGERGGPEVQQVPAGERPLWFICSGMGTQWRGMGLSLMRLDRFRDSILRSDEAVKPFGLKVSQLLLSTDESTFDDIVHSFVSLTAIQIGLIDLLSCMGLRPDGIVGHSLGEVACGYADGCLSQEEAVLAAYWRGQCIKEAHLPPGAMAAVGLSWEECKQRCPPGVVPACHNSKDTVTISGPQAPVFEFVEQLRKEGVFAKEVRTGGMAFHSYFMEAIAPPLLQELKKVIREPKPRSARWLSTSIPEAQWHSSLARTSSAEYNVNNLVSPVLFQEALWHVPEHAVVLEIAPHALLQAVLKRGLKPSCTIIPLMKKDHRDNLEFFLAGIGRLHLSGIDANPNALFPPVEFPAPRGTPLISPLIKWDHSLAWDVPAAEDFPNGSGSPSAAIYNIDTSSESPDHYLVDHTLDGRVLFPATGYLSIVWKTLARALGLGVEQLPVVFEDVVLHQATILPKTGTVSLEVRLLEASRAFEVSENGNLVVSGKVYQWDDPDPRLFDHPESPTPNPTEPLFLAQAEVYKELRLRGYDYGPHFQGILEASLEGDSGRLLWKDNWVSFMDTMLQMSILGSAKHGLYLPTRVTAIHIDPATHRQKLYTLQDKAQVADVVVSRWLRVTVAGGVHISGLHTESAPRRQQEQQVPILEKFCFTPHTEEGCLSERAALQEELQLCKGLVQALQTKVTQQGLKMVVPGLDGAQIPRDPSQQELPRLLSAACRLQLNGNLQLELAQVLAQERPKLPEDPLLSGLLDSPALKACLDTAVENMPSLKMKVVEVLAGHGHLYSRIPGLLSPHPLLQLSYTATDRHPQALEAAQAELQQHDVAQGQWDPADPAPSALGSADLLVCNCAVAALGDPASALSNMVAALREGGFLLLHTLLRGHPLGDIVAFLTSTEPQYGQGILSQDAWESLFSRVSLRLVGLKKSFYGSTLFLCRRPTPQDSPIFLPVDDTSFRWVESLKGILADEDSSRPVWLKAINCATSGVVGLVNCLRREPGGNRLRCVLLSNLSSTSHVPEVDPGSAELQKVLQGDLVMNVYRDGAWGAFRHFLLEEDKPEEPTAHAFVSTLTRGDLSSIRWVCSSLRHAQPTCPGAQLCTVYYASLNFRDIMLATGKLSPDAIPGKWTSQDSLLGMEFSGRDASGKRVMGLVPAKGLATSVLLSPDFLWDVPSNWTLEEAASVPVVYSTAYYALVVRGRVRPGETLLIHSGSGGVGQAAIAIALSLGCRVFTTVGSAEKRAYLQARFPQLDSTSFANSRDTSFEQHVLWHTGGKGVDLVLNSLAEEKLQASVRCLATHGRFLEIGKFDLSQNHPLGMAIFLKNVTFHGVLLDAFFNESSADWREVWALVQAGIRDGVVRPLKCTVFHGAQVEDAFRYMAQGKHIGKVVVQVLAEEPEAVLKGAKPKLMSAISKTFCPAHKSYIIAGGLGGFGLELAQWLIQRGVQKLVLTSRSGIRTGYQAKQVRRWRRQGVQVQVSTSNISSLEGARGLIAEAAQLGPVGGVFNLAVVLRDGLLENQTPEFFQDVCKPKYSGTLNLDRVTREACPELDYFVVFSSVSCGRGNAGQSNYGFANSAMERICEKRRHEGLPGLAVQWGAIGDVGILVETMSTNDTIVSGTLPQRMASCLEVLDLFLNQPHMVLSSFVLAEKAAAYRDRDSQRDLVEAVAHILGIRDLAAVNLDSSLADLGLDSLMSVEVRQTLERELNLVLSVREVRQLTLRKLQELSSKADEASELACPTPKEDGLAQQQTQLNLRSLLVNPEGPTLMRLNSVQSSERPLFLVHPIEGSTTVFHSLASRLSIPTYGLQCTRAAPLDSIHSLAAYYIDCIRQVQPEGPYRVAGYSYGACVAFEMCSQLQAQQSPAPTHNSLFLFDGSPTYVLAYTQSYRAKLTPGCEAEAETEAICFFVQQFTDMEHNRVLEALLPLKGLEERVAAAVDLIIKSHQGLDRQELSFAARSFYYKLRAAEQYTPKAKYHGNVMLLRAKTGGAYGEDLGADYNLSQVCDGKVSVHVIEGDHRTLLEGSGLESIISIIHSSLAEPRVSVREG

[7] = target: Small ubiquitin-related modifier 1 (Homo sapiens, UniProt P63165); assay: inhibitors of SUMO1 peptide binding, dose response, biochemical, fluorescence polarization, uHTS hits (AID 624382); format: functional; details: read-out: IC50_Mean
Chain of Small ubiquitin-related modifier 1 (P63165 whole entry, the tested form may be a part): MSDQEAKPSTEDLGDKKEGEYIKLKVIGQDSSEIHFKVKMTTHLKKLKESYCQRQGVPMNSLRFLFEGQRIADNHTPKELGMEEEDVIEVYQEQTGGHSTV

[8] = target: T1, Type-1 angiotensin II receptor (Homo sapiens, UniProt P30556); assay: AT1 receptor agonists, dose response, selectivity assay for APJ receptor agonist project, cell-based, uHTS hits (AID 488865); format: functional;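 further: beta-arrestin recruitment to AT1 measured by enzyme fragment complementation luminescence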
T1 sequence (P30556 whole entry): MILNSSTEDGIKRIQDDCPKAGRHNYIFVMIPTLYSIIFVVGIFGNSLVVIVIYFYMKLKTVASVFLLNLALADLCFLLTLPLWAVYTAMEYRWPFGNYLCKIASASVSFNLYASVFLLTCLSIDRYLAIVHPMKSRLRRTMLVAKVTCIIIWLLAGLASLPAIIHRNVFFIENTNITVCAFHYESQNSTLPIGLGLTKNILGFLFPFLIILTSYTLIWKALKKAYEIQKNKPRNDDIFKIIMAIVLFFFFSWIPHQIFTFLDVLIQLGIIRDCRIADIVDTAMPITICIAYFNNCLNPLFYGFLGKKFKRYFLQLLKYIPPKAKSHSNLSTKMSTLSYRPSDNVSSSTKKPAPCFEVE

[9] = HEK293T cytotoxicity, dose response, cytotoxicity control for miR-122 modulator project, cell-based, inhibitor set, cherry-pick, set 2 (AID 720697); format: functional
[10] = target: Voltage-gated inwardly rectifying potassium channel KCNH2 (Homo sapiens, UniProt Q12809); assay: hERG protection from proarrhythmic block, potency, dose response, cell-based, thallium flux (AID 2121); format: ADME
[11] = target: T2, Mitochondrial peptide methionine sulfoxide reductase (Bos taurus, UniProt P54149); assay: Absorbance-based biochemical high throughput dose response assay for activators of Methionine sulfoxide reductase A (MsrA).; format: functional
T2 sequence (P54149 whole entry): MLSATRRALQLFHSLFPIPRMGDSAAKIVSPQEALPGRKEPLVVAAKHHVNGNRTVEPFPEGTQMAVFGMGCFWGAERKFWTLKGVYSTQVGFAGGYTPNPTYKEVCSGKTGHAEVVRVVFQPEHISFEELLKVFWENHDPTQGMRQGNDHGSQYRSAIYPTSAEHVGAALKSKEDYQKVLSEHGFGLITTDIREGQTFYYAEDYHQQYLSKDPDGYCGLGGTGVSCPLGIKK

[12] = target: Histone-lysine N-methyltransferase NSD2 (Homo sapiens, UniProt O96028); format: biochemical
[13] = target: Peroxisome proliferator-activated receptor gamma/Nuclear receptor coactivator 1 (Homo sapiens, UniProt P37231); assay: TR-FRET dose response biochemical High Throughput Screening assay for agonists of the steroid receptor coactivator 1 (SRC-1) recruitment by the peroxisome proliferator-activated receptor gamma (PPAR gamma): non-selective agonists. [Related pubchem assays (depositor defined):AID1300, AID1808, AID504735, AID631]; format: protein assay
[14] = target: Mothers against decapentaplegic homolog 3 (Homo sapiens, UniProt P84022); assay: SMAD3 transcription factor inhibitors, dose response (AID 715); format: functional
Chain of Mothers against decapentaplegic homolog 3 (P84022 whole entry, the tested form may be a part): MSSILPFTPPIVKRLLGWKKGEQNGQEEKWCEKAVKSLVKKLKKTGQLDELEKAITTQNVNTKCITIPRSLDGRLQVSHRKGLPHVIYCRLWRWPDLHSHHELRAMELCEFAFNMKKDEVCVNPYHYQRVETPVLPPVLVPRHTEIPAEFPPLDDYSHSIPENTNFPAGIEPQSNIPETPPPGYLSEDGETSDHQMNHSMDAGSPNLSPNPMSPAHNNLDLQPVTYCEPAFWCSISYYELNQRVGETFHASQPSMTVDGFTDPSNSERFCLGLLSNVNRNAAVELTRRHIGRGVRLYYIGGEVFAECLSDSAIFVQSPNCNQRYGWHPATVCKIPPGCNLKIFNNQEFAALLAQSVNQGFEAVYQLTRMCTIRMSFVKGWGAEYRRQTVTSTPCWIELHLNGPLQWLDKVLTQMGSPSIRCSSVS

[15] = Fluorescence-based cell-based high throughput dose response assay for inhibitors of the interaction of nucleotide-binding oligomerization domain containing 2 (NOD2) and the receptor-interacting serine-threonine kinase 2 (RIPK2).; format: functional; details: Homo sapiens
[16] = target: T3, Heat shock factor protein 1 (Mus musculus, UniProt P38532); assay: inhibition of MG132-induced HSE-luciferase signal, confirmation, cell-based, NIH3T3, luminescence, dose retest (AID 2382); format: functional;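 further: NIH3T3 fibroblasts with HSF1-driven luciferase reporter stressed by proteasome inhibitor MG132; luminescence from HSF1-driven luciferase expression after 8 hours of MG132 stress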
T3 sequence (P38532 whole entry): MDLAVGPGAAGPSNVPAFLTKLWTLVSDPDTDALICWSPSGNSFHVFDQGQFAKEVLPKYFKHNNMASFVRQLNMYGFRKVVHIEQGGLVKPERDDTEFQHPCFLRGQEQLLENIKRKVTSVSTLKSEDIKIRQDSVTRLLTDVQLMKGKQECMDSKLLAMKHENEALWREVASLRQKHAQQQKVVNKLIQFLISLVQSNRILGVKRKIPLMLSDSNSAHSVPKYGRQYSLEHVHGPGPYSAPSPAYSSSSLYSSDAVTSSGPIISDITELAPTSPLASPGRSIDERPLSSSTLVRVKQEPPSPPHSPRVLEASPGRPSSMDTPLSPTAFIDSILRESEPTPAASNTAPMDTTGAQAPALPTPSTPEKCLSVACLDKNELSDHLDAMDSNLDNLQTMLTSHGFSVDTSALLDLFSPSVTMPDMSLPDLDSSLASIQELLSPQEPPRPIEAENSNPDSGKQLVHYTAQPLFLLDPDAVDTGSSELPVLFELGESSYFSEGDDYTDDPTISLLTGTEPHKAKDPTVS

[17] = target: G-protein coupled receptor 55 (Homo sapiens, UniProt Q9Y2T6); assay: GPR55 agonists via beta-arrestin recruitment, primary screen, imaging, U2OS cells, beta-arrestin-GFP redistribution (AID 1961); format: functional
Chain of G-protein coupled receptor 55 (Q9Y2T6 whole entry): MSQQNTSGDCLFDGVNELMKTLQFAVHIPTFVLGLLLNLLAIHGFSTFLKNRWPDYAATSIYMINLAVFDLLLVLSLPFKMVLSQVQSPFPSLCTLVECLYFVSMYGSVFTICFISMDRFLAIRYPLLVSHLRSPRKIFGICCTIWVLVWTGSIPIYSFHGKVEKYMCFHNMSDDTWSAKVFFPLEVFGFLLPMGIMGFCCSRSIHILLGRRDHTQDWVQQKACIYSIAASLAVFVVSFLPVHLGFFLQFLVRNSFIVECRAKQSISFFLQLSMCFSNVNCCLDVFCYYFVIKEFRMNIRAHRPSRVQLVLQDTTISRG

## CCCC(=O)NC(c1ccccc1OC)c1ccc2cccnc2c1O (stereo unspecified)
Jurkat [1]
  IC50: 5.16 µM (active)
Jurkat [2]
  IC50: 3.82 µM (active)
HEK293 [3]
  IC50: 3.97 µM (active)
HEK293 [4]; Homo sapiens, HEK293
  IC50: 29.6 µM (inactive)
HEK293 [4]; hek293
  IC50: 41.2 µM (inactive)

## COC(CNC(=O)c1ccc2c3c(onc13)-c1ccccc1C2=O)OC
Beta-galactosidase
  IC50: > 66.6 µM (inactive)
[5]
  AC50: 2.79 µM (active)

## COc1cc(-c2ccc(Nc3ccccc3C(=O)O)c(OC)c2)ccc1Nc1ccccc1C(=O)O
[6]
  IC50: 3.91 µM (active)
ORF 73
  AC50: 78.9 µM (active)
Fatty acid synthase
  IC50: 6.68 µM (active)
[7]
  IC50: 0.647 µM (active)

## Cc1ccc2nc(/C(C#N)=C\c3ccc([N+](=O)[O-])o3)[nH]c2c1
[8]
  EC50: > 100 µM (inactive)

## Nc1ccc2c(c1)C(=O)C(=O)c1ccccc1-2
[9]
  AC50: 2.19 µM (active)
[10]
  EC50: 1.38 µM (active)
[11]
  EC50: 9.09 µM (active)
[12]
  AC50: 0.273 µM (active)
[13]
  EC50: 12.3 µM (inactive)
[14]
  IC50: 9.89 µM (active)

## COC(=O)[C@@H]1[C@@H](C(=O)OC)C2(c3ccccc3-c3ccccc32)N(c2ccc(Cl)cc2)N1C#N
[15]
  IC50: 1.77 µM (active)
[16]
  EC50: 8.22 µM (inconclusive)
[17]
  EC50: > 32 µM (inactive)
